# Assay results from paper PMC4992173, “Divergent synthesis and identification of the cellular targets of deoxyelephantopins” (Nature Communications, 2016).
# Columns and labels:
# [1] = system: 11 identified targets in MCF7 cells; test: Targeted in situ competitive profiling in live MCF7 cells, all 11 targets; assay type: cell-based, human; settings: intact MCF7 cells, 20 µM, 4 h, then 10 µM 24c
# Excerpt: (§1) In our efforts to determine the direct molecular targets of deoxyelephantopin we first performed a gel-based competitive in situ proteomic profiling assay[41] […] While the greater conformational flexibility of probe 24c could potentially lead to more promiscuous target engagement relatively to deoxyelephantopin, it was favoured based on the fact that an alkyne moiety appended to the rigid scaffold of deoxyelephantopin may hinder some of its interactions. MCF7 cells were pretreated with various concentrations of deoxyelephantopin for 4 h, harvested, lysed and the lysates were treated with the fluorogenic probe 24c-Cy3 (10 μM; Supplementary Fig. 10). […] Furthermore, cells were pretreated with 20 μM concentration of deoxyelephantopin or 24c and the proteomic profiles were compared (Fig. 6b, Supplementary Fig. 11). Multiple bands were detected that were equally competed by both DEP and 24c, thus again confirming that 24c can be used as an acceptable clickable analogue of deoxyelephantopin in pulldown assays. Having established the optimal labelling conditions by SDS–PAGE, we next carried out a mass spectrometry-based competitive profiling assay[42] coupled with the method of stable isotope labelling of amino acids in culture (SILAC)[43]. […]
# (§2) Figure 6 Proteome-wide identification of deoxyelephantopin targets. […] Quantification was performed using label-free quantification (LFQ) method (n=4). […]
# [2] = molecular target: T1, Glyoxylate reductase/hydroxypyruvate reductase (GRHPR) (Homo sapiens, UniProt Q9UBQ7); test: In situ competitive profiling in live MCF7 cells (LFQ): GRHPR; assay type: cell-based; settings: protein GRHPR, 4 h, then 10 µM 24c, n=4
# T1 construct: endogenous in cells; host or cells: MCF7
# T1 sequence (Q9UBQ7 whole entry): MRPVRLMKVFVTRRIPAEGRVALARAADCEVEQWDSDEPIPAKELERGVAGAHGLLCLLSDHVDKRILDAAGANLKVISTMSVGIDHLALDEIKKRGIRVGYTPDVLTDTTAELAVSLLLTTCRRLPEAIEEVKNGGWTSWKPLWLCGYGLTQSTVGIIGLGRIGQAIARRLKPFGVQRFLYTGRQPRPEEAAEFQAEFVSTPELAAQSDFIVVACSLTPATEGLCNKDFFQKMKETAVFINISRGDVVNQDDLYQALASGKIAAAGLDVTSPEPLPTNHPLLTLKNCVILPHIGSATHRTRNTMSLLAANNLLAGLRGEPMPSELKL
# Excerpt: as §1, §2
# [3] = system: tumour growth and metastasis; parameters: method as in PMID 20105176; settings: murine orthotopic breast cancer model, compared with paclitaxel; cited from earlier work
structure (smiles),measurement,setting,value
C=C(C)C(=O)O[C@H]1CC2=C[C@@H](C/C(C)=C/[C@H]3OC(=O)C(=C)[C@H]13)OC2=O [deoxyelephantopin],competition of all 11 targets in situ,[1],> 70%
same,LFQ ratio 20 µM Deoxyelephantopin/DMSO with 24c,[2],0.00
same,suppression of tumour growth and metastasis,[3],more effective than paclitaxel
